Where a name gives a salt, the structure may show the parent alone. Where a SMILES comes first, the peptide text is derived from it. The star is where a group is joined. Cbz = O=C(OCc1ccccc1)*
Assays:
eDHFR-YFP [1] = assay: Inhibitor test in HEK293T eDHFR-YFP+ cells, Western blot; type: cell-based, Escherichia coli; settings: inhibitor pre-incubated 1 h, then 100 nM 7c for 12 h
Description: Cells were then isolated as previously described and prepared for Western blot analysis. For readout by flow cytometry, 3×10^5 HEK293T^eDHFR-YFP+ cells were seeded in a clear (Falcon) 12-well plate (5×10^5 cells/well) in complete media and the cells were treated as described above the following day. Cells were washed, trypsinized, and collected following total of 13 h of incubation, and their YFP expression was analyzed on flow cytometer (BD).

eDHFR-YFP [2] = assay: Time and dose-dependent degradation of YFP in Jurkat-DYL / Jurkat eDHFR-YFP+ cells, flow cytometry; type: cell-based, Escherichia coli; settings: Jurkat-DYL; 4, 8 and 18 h incubation, varying doses
Description: Likewise, Jurkat eDHFR-YFP (Jurkat^eDHFR-YFP+) cells are seeded in clear (Falcon) 12-well plates (3×10^5 cells/well) in complete media. […]

[3] = test system: DHFR-YFP (DY) direct fusion protein; assay: Degradation mechanism in Jurkat-DYL cells pre-treated with epoxomicin or hydroxychloroquine sulfate, flow cytometry; type: cell-based, Escherichia coli; settings: Jurkat-DYL pre-treated with DMSO, epoxomicin or hydroxychloroquine sulfate 2 h, then compound 4 h
Description: In FIG. 2, flow cytometric analysis is used to measure Jurkat-DYL cells expressing DHFR-YFP (DY) direct fusion protein pre-treated with DMSO, epoxomicin (EPOX), or hydroxychloroquine sulfate (HCS) for 2 hours before DMSO or compound 7b treatment for 4 hours.

eDHFR-YFP [4] = assay: Degradation of eDHFR-YFP in HEK293T eDHFR-YFP+ cells, Western blot with anti-YFP antibody; type: cell-based, Escherichia coli; settings: 24 h
Description: HEK293T eDHFR-YFP (HEK293T^eDHFR-YFP+) and OVCAR8 eDHFR-luc (OVCAR8^eDHFR-luc+) cells are prepared in clear (Falcon) 6-well plates (5×10^5 cells/well) and cultured in complete media. Compound 7c is solubilized in 100% DMSO to 10 mM. 10 mM 7c is serially diluted in sterile water accordingly and each dose administered to cells in fresh media at equal volume, such that the final concentration of DMSO in cell media is <1%. Once incubation with drug is completed, media is removed by vacuum, cells are washed with phosphate-buffered saline (PBS), trypsonized at 37° C., quenched with media, and centrifuged (Thermo Scientific Sorvall Legend X1R) at 1000 RPM for 5 minutes. Media and cell debris are removed by vacuum.
Once cells are isolated by centrifugation (Thermo Scientific Sorvall Legend X1R), they are solubilized in radioimmunoprecipitation assay (RIPA) lysis buffer with protease inhibitor. Cell lysate is incubated on ice for 30 minutes, sonicated, then centrifuged (Thermo Scientific Sorvall Legend Micro 21R) at 14,800 RPM for 10 minutes. Supernatant is removed and transferred to a new Eppendorf tube.
Using Thermo Scientific bicinchoninic acid (BCA) assay kit, total cell protein is quantified and compared to bovine serum albumin (BSA) standards ranging from 10 to 0.625 mg/mL. Cell lysate is aliquoted into a 96-well clear plate (Falcon) and mixed with reagent and shaken at 37° C. for 30 minutes. Samples are analyzed by plate reader (ThermoFisher Varioskan Plusplate), where absorbance is measured at […]. A calibration curve is developed, and samples are prepared to equal mass (mg) of total protein for gel electrophoresis.
Cell lysate is prepared by mixing with 4 uL of loading dye and PBS to give equal total protein and equal total volume across all samples. Each sample is loaded into a NuPage gel (4-12% Bis-tris) and developed in NuPage MES Running Buffer. Once complete, the gel is removed and prepared for protein transfer to membrane. […]

[5] = test system: FAP CAR-eDHFR direct fusion (DF); assay: Dose response of surface CAR expression in primary human FAP-eDHFR DF CAR T cells, flow cytometry; type: cell-based; settings: different doses, 24 hours
Description: Generated CAR T cells were pelleted, resuspended in 2% BSA in PBS (Invitrogen), and incubated with Alexa Fluor® 647 AffiniPure F(ab′2) fragment goat anti-mouse IgG (Jackson ImmunoResearch Laboratories) for 30 minutes at room temperature. Stained cells were washed 3 times with PBS, and were analyzed on a flow cytometer (LSR II, BD Biosciences) for CAR and/or BFP expression. All flow data were analyzed using FlowJo software (FlowJo).
Following incubation, the cells were washed and stained with Alexa Fluor® 647 AffiniPure F(ab′2) fragment goat anti-mouse IgG (Jackson ImmunoResearch Laboratories) as described under “Flow Cytometry”, and their surface expression was analyzed on a flow cytometer (LSR II, BD Biosciences).
Data plotted as raw CAR stain fluorescence is shown in the left panel and percent of maximum CAR expression is shown in the right panel.
Values are reported as percent of maximum CAR expression (i.e. relative to CAR T cells that were treated with vehicle control). Each color represents a different donor (n=3).

[6] = test system: FAP CAR-eDHFR direct fusion (DF); assay: Inhibitor test in primary human FAP-eDHFR DF CAR T cells, flow cytometry; type: cell-based; settings: inhibitor pre-incubated 1 hour, then 100 nM 7c for 4 hours
Description: Following pre-incubation, either 100 nM 7c or vehicle control DMSO (Sigma) was added to the wells, and cells were incubated with the drug for another 4 hours. Following incubation, the cells were washed and their surface CAR expression was assessed on a flow cytometer (BD Biosciences).
Following pre-incubation, the cells were incubated with 100 nM 7c for 4 hours and their CAR expression was assessed on a flow cytometer.

FAP-eDHFR DF CAR T cells [7] = settings: 1 hour at 37° C., with or without 5 μM unlabeled TMP
Description: 3×10^6 CAR T cells were incubated with 6×10^6 counts per minute (cpm) of [^18F]FPTMP for 60 minutes in the presence or absence of unlabeled 5 μM TMP. Following incubation, cells were centrifuged at 1200 rpm and washed 3 times with cold PBS (Corning). After the third wash, the cell pellet was resuspended in 900 μL of PBS and split into 3 technical replicates of 300 μL. Radiotracer uptake was quantified on a gamma counter (PerkinElmer) and analyzed by dividing counts by the injected dose (ID) of [^18F]FPTMP. The final uptake was reported as a ratio between % ID normalized per 10^6 cells (% ID/10^6 cells) of the [^18F]FPTMP group and the blocked control (i.e. cells that were incubated with both unlabeled TMP and [^18F]FPTMP).

FAP-eDHFR DF CAR T cells [8] = settings: 10:1 E:T ratio overnight, I45 huFAP target cells

Cn1cnc(N)c2ncnc1-2 [3-Methyladenine]
effect of inhibitor on eDHFR-YFP degradation induced by 7c (eDHFR-YFP [1]): does not

COc1cc(Cc2cnc(N)nc2N)cc(OC)c1OCC(=O)NCCOCCOCCNc1cccc2c1C(=O)N(C1CCC(=O)NC1=O)C2=O (centres unmarked) [Compound 7a, 2-(4-((2,4-diaminopyrimidin-5-yl)methyl)-2,6-dimethoxyphenoxy)-N-(2-(2-(2-((2-(2,6-dioxopiperidin-3-yl)-1,3-dioxoisoindolin-4-yl)amino)ethoxy)ethoxy)ethyl)acetamide]
degradation of YFP (eDHFR fusion protein) (eDHFR-YFP [2]): degrade eDHFR fusion proteins to low/no functional expression

COc1cc(Cc2cnc(N)nc2N)cc(OC)c1OCCCC(=O)NCCOCCNc1cccc2c1C(=O)N(C1CCC(=O)NC1=O)C2=O (centres unmarked) [Compound 7b, 4-(4-((2,4-diaminopyrimidin-5-yl)methyl)-2,6-dimethoxyphenoxy)-N-(2-(2-((2-(2,6-dioxopiperidin-3-yl)-1,3-dioxoisoindolin-4-yl)amino)ethoxy)ethyl)butanamide]
mechanism of degradation of eDHFR-POI [3]: primarily via a proteosome-mediated mechanism of degradation | degradation of YFP (eDHFR fusion protein) (eDHFR-YFP [2]): degrade eDHFR fusion proteins to low/no functional expression

COc1cc(Cc2cnc(N)nc2N)cc(OC)c1OCCCC(=O)NCCOCCOCCOCCOCCOCCOCCNc1cccc2c1C(=O)N(C1CCC(=O)NC1=O)C2=O (centres unmarked) [Compound 7e, 4-(4-((2,4-diaminopyrimidin-5-yl)methyl)-2,6-dimethoxyphenoxy)-N-(20-((2-(2,6-dioxopiperidin-3-yl)-1,3-dioxoisoindolin-4-yl)amino)-3,6,9,12,15,18-hexaoxaicosyl)butanamide]
degradation of eDHFR-YFP in dose response screen (eDHFR-YFP [4]): no degradation | degradation of YFP (eDHFR fusion protein) (eDHFR-YFP [2]): degrade eDHFR fusion proteins to low/no functional expression

COc1cc(Cc2cnc(N)nc2N)cc(OC)c1OCCCC(=O)NCCOCCOCCNc1cccc2c1C(=O)N(C1CCC(=O)N(C)C1=O)C2=O (centres unmarked) [Compound 7f, 4-(4-((2,4-diaminopyrimidin-5-yl)methyl)-2,6-dimethoxyphenoxy)-N-(2-(2-(2-((2-(1-methyl-2,6-dioxopiperidin-3-yl)-1,3-dioxoisoindolin-4-yl)amino)ethoxy)ethoxy)ethyl)butanamide]
downregulation of surface CAR expression in dose response assay [5]: does not result in downregulation of CAR expression from their surface | eDHFR-YFP degradation at 100 nM (eDHFR-YFP [4]; 100 nM): does not induce eDHFR-YFP degradation

CC[C@H](C)[C@H](NC(=O)[C@H]([C@@H](C)CC)N(C)C(C)=O)C(=O)N[C@H](C(=O)N[C@@H](CC(C)C)C(=O)[C@@]1(C)CO1)[C@@H](C)O [Epoxomicin]
effect of inhibitor on TMP-POM 7c-mediated degradation of CAR [6]: blocked TMP-POM 7c-mediated degradation of CAR | effect of inhibitor on eDHFR-YFP degradation induced by 7c (eDHFR-YFP [1]): blocks degradation induced by 7c

CCN(CCO)CCCC(C)Nc1ccnc2cc(Cl)ccc12 (centres unmarked) [Hydroxychloroquine HCl]
effect of inhibitor on eDHFR-YFP degradation induced by 7c (eDHFR-YFP [1]): does not

CC(C)C[C@@H](C=O)NC(=O)[C@H](CC(C)C)NC(=O)[C@H](CC(C)C)NC(=O)OCc1ccccc1 [MG132] (Cbz-Leu-Leu-Leu-aldehyde)
effect of inhibitor on TMP-POM 7c-mediated degradation of CAR [6]: blocked TMP-POM 7c-mediated degradation of CAR

NS(=O)(=O)OC[C@@H]1C[C@@H](n2ccc3c(N[C@H]4CCc5ccccc54)ncnc32)C[C@@H]1O [MLN4924]
effect of inhibitor on TMP-POM 7c-mediated degradation of CAR [6]: blocked TMP-POM 7c-mediated degradation of CAR | effect of inhibitor on eDHFR-YFP degradation induced by 7c (eDHFR-YFP [1]): blocks degradation induced by 7c

COc1cc(Cc2cnc(N)nc2N)cc(OC)c1OCCC[18F] [[18F]FPTMP, [^18F]Fluoropropyl-Trimethoprim]
in vitro uptake of radiolabeled TMP (FAP-eDHFR DF CAR T cells [7]): preserved in vitro uptake | effect of radiotracer exposure on CAR T cell cytotoxic function (FAP-eDHFR DF CAR T cells [8]): does not affect the effectors' ability to signal and kill target cells

CO/C1=C\C(C)=C\[C@@H](C)[C@@H](O)[C@@H](C)C/C(C)=C/C=C/[C@H](OC)[C@@H]([C@@H](C)[C@@H](O)[C@H](C)[C@@]2(O)C[C@@H](O)[C@H](C)[C@@H](C(C)C)O2)OC1=O [bafilomycin]
effect of inhibitor on TMP-POM 7c-mediated degradation of CAR [6]: had no impact on TMP-POM 7c function

From patent US20240226100A1, “CONTROL OF PROTEIN EXPRESSION WITH TMP-PROTAC COMPOUNDS” (THE TRUSTEES OF THE UNIVERSITY OF PENNSYLVANIA, priority 2021, published 2024)
